EP0366451A2, “The use of oxidized polyamines, especially NN'-Bis-(3-propionaldehyde)-1-4-diaminobutane (sperminedialdehyde) as immunosuppressive agents” (ORTHO PHARMACEUTICAL CORPORATION, priority 1988, dated 1990)
“Also recorded” adds a separate entry of the source.

Experiments:
[1] = system: tumor cells and hemopoietic progenitor cells; assay: Cytotoxicity of ALDH inhibitors ex vivo; format: cell-based; settings: at concentrations much lower than needed for complete inhibition of ALDH
Description: Both disulfiram and acrolein were very toxic to tumor cells and hemopoietic progenitor cells ex vivo at concentrations much lower than that needed for complete inhibition of ALDH. […] Therefore, in subsequent experiments, DEAB was chosen to study the survival of leukemic cells and myeloid progenitor cells after treatment with SDA.

[2] = system: cytosolic ALDH; assay: NAD-linked cytosolic ALDH assay, L1210/CPA cells; format: biochemical, Murine
Procedure: (§1) Cultured murine leukemic cells and livers (excised from mice immediately after cervical dislocation) were homogenized in 3 volumes of ice-cold 1.15% KCl and 1 mM EDTA. The homogenate was centrifuged at 100,000 g for 45 min and the resulting supernatant was used to measure cytosolic ALDH activity. For particulate ALDH assay, the pellet (and homogenate for total ALDH) was resuspended in homogenizing buffer and treated with 0.25% Triton X-100 for 30 min at 4°C. The solubilized preparations were centrifuged at 48,000 g for 30 min and the supernatants were drawn off for ALDH determinations.
(§2) ALDH activity was measured by monitoring the reduction of NAD or NADp for 5-6 min at […] at 37°C in DU70 spectrophotometer (Beckman). The assay mixture contained 50 mM potassium phosphate buffer, pH 7.4, 2.0 mM NAD (or NADP) and 1.0 mM EDTA. The reaction was started by adding the substrate (SDA or other aldehyde) to the prewarmed (5 min at 37°C) assay mixture containing enzyme preparation. Pyrazole (0.1 mM) was added particularly for liver enzyme, to inhibit alcohol dehydrogenase. The apparent Km and maximum velocity (Vmax) values were calculated using a Lineweaver-Burk plot based on the estimation of the slope by regression analysis. Enzyme activity was expressed as mU (nmoles/min) per mg of protein. Protein contents were determined by the Bradford method, using bovine serum albumin as the standard.

[3] = molecular target: T1, S-Adenosylmethionine Decarboxylase (AdoMet DC) (Mus musculus, UniProt P0DMN7); assay: AdoMet DC inhibition in L1210 cell supernatants ([14C]CO2 release); format: biochemical, Murine; settings: for inhibition of AdoMet DC (in words): Fig. 9 and Figure 10
T1 construct: endogenous in cells; host or cells: murine leukemic L1210 cells (supernatant)
T1 sequence (P0DMN7 68-334 limits assumed): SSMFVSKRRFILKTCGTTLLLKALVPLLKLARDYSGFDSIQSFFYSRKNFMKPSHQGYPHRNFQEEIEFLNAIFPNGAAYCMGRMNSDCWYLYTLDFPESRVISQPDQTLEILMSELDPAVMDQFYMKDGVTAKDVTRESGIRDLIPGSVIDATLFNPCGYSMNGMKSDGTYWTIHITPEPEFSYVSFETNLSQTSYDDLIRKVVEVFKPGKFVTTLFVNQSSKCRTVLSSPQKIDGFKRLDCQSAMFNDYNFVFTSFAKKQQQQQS
T1 sequence (P0DMN7 1-67 limits assumed): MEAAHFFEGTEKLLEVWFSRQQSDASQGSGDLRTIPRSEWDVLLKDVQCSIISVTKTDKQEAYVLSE
Procedure: Murine leukemic L1210 cell supernatants were incubated with different concentrations of SDA or butyl dialdehyde, and AdoMet DC activity was estimated by monitoring the release of [¹⁴C] CO₂. Inhibition curves for both drugs were superimposable with IC₅₀ values of 0.12-0.13 x 10⁻³ M.

[4] = Preliminary in vitro alkylation studies
[5] = system: NADP-linked cytosolic ALDH; assay: NADP-linked cytosolic ALDH assay, L1210/CPA cells; format: biochemical, Murine; settings: SDA as substrate; read-out: 50% inhibition at
Procedure: as §1
as §2, with “standard. […]” for “standard.”

[6] = system: Cytosolic ALDH in mouse liver; assay: NAD-linked cytosolic ALDH assay, mouse liver; format: biochemical; settings: as substrate, mouse liver cytosol
Procedure: as §1, §2

[7] = system: splenic T cell; assay: Concanavalin A-stimulated splenic T cell proliferation ([3H]-thymidine incorporation); format: cell-based, Mouse
Procedure: Splenic cells were treated with various concentrations of SDA or an analogue for 30 min. at 37°C. Cells were washed and cultured in the presence of Concanavalin A for 3 days. [³H] Thymidine 0.1µCi/well was added and cells were harvested after 18-24 hrs.
Mouse spleen cells were cultured for 3 days in flat bottom microtiter relates at 10⁵ cells per well in the presence of […] of Con A. 3H-thymidine (0.1 microcurie/well) was added for the last 4-6 hours of the culture period. Cells were harvested as described above.
For [³H]-thymidine incorporation, drug or vehicle treated bone marrow or spleen cells were plated in RPMI-1640, containing 10% fetal bovine serum, 10 µM β-mercaptoethanol, 25 mM HEPES and 2 mM glutamine. Con-A (4 µg/ml and […]) was used as mitogens for bone marrow and spleen cells. Three days later, [³H]-thymidine (0.2 µCi/well) was added and cells were harvested after 12-18 hrs. L1210/CPA and L1210/0 cells (0.1 - 1 x 10⁵ cells/well were plated in RPMI-1640 containing 10% horse serum. [³H]-thymidine was added after 24 hrs and cells were filtered on GF/B filter paper for scintillation counting.

[8] = molecular target: Ornithine decarboxylase (Mus musculus, UniProt P00860); assay: Ornithine decarboxylase inhibition; format: biochemical; settings: Figure 10
Chain of Ornithine decarboxylase (P00860 whole entry): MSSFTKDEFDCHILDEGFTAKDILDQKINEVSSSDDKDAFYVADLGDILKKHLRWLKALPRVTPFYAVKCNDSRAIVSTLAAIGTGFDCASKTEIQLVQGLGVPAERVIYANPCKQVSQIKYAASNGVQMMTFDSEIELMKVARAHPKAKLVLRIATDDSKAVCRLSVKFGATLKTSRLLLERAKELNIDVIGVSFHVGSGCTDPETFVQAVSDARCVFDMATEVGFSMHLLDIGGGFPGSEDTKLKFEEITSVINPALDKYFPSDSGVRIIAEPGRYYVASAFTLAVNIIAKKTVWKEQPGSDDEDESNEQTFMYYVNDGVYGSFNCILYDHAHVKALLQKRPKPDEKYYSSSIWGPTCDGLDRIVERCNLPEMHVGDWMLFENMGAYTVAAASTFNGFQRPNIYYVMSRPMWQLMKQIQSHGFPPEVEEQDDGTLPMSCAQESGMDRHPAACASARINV
Description: The figure illustrates the comparative profile of the inhibition of key regulatory enzymes of polyamine synthesis by SDA, its analogue, butyl dialdehyde (BDA), difluoromethyl orinithine (DFMO) and methyl glyoxal bis (guanylhydrazone) (MGBG).

## CCN(CC)C(=S)SSC(=S)N(CC)CC [Disulfiram]
[1]
  toxicity to tumor cells and hemopoietic progenitor cells ex vivo: very toxic

## c1cn[nH]c1 [Pyrazole]
[2]; SDA as the substrate, data not shown
  effect on L1210/CPA cytosolic enzyme: had no effect

## CC(C=NNC(=N)N)=NNC(=N)N [MGBG, methyl glyoxal bis (guanylhydrazone), reference compound]
[3]
  inhibition of AdoMet DC (in words): inhibited AdoMetDC; also recorded: selectively reduced AdoMet IC activity

## CC(=O)CCNCCCCNCCC(C)=O [ANALOGUE # 3]
[4]
  alkylation: nonspecific alkylating agents

## Nc1ncnc2c1nc(Sc1cc3c(cc1Br)OCO3)n2CCc1ccccc1Cl [ANALOGUE # 4]
[4]
  alkylation: nonspecific alkylating agents

## C=CC=O [Acrolein]
[1]
  toxicity to tumor cells and hemopoietic progenitor cells ex vivo: very toxic
[5]
  IC50: 50 to 100 µM
[2]; SDA (1.0 mM) as substrate, pretreated with inhibitor 5 min at 37°C, read-out: Inhibition (IC₅₀)
  IC50: 2.5 ± 0.63 µM

## CCC=O [Propionaldehyde]
[2]; as substrate, L1210/CPA cytosol, NAD, ± SEM, 3-4 experiments
  Km: 26.5 ± 4.9 µM
[2]; as substrate, L1210/CPA cytosol, propionaldehyde 1.0 mM
  Specific (activity of ALDH): 10.5 ± 3.2 mU/mg Protein
[6]; NAD, ± SEM, 3-4 experiments
  Km: 14 ± 2.8 µM
[6]; propionaldehyde 1.0 mM
  Specific (activity of ALDH): 22.5 ± 3.9 mU/mg Protein

## O=CCCCNCCCCNCCCC=O [ANALOGUE # 7, butyl dialdehyde]
[3]
  inhibition of AdoMet DC (in words): selectively inhibited adenosylmethionine decarboxylase
[3]; Figure 9, inhibition curves superimposable, read-out: IC₅₀ values
  IC50: 120 to 130 µM
[7]; Fig. 8
  potency in proliferation assays compared with SDA: less potent than SDA
[7]; Figure 8
  fold less potent than SDA: 30 fold

## NCCCC(N)(C(=O)O)C(F)F (stereo not drawn) [DFMO, difluoromethyl orinithine, reference compound]
[3]
  inhibition of AdoMet DC (in words): compensatory increase in AdoMetDC
[8]
  inhibition of ODC (in words): inhibited ODC with high potency
